Results reported in patent US8318812B2, “Therapeutic agents for the treatment of lymphoid malignancies” (The Ohio State University Research Foundation, priority 2006, dated 2012).

Legend:
Raji cells = experiment: Raji disseminated lymphoma/leukemia SCID mouse xenograft model; assay type: in vivo, SCID mice
Experimental: In vivo therapeutic efficacy evaluation in a xenograft model: The in-vivo evaluation of FTY720 was carried out using the disseminated lymphoma bearing SCID mouse xenograft model. This model was generated using human Raji B cell line injected into SCID mice as previously described. Raji cells were cultured in RPMI1640+10% FBS. Confluent cultures with >95% viability were confirmed to express human CD19 by flow cytometry. […] female 6-8 week-old C.B.-17 SCID mice (Taconic Farm, Germantown, N.Y.) were injected with 2×10^6 cells intravenously (i.v) in 200 ul sterile PBS via the tail vein. Seventy two hours post inoculation, the animals were divided into 4 equal treatment groups. […] All the animals were monitored daily for signs of illness and sacrificed immediately if hind limb paralysis, respiratory distress or 30% body weight loss was noted. Body weight was measured once every week. […] The presences of the CD19^+ cells were evaluated in the bone marrow of these mice by flow cytometry. […]

[1] = system: PARP, Caspase 3, caspase 8 and caspase 9; experiment: Western blot of PARP and caspases 3, 8, 9 in CLL cells; assay type: cell-based, Human
Experimental: Western blotting. Immunoblot assays were performed as described previously.(34) Cell lysates were prepared and quantified by the bicin choninic acid (BCA) method (Pierce, Rockford, Ill.). Lysates with 50 μg of total protein were separated using 10% sodium dodecyl sulfate-polyacrylamide-gel electrophoresis, and transferred to 0.2 μm nitrocellulose membranes (Schleicher & Schuell, Keene, N.H.). The blots were probed with indicated primary antibodies followed by Horseradish peroxidase (HRP)-conjugated goat anti-rabbit IgG or goat anti-mouse IgG (Bio-Rad Laboratories, Richmond, Calif.). Detection was made with chemiluminescent substrate (SuperSignal, Pierce Inc. Rockford, Ill.). The PARP (Ab-2) and Caspase 9 antibodies were purchased from Oncogene/Calbiochem/EMD Biosciences (San Diego, Calif.). The Caspase 3 (AR-14 caspase 3/cpp32 and caspase 8 (AR-18) antibodies were kind gift from Dr. John Reed (Burnham Institute, La Jolla, Calif.).
FTY720 induced apoptosis in CLL cells is not dependent on activation of caspases, the cysteine proteases of CED3/ICE family Several therapeutic agents such as glucocorticoids and chemotherapeutic agents such as fludarabine, chlorambucil and 2-chloro-2-deoxyadenosine induce cellular cytotoxicity in CLL cells through activation of caspases, the cysteine proteases of CED3/ICE family. […]

Mino cells = experiment: Cell cycle analysis by flow cytometry in Mino cells; assay type: cell-based, Human; settings: compared to vehicle control
Experimental: Deregulated cyclin D1 expression contributes to cell cycle defects in MCL cells. […] Mino cells were treated with FTY720 for 12, 24 and 48 hrs and subjected to cell cycle analysis by flow cytometry. […] This decrease in S phase is entry is further reflected by accumulation of cells in G1 phase of the cell cycle.

AML cell lines = experiment: Cell cycle analysis (propidium iodide DNA content) in AML cell lines; assay type: cell-based; settings: 1 uM and 10 uM, 48 hours
Experimental: Cell suspensions were treated with vehicle control, 1 uM, and 10 uM FTY720 for 48 hours. After fixation in ethanol, samples were stained with propidium iodide, and assessed for DNA content. Percentage of cells in subG1, G1, S, and G2-M for each cell line are depicted (FIG. 11A) with representative plots below for MV411 (FIG. 11B). Although cell cycle arrest is not seen, induction of apoptosis is noted by the increased fraction of sub G1 with FTY720 treatment.

CCCCCCCCc1ccc(CCC(N)(CO)CO)cc1.Cl [FTY720, 2-Amino-2-[2-(4-octylphenyl)ethyl]propane 1,3-diol hydrochloride]
median survival time (Raji cells; FTY720 5 mg/kg every day for 2 weeks i.p., 95% CI 39-53): 47 days
mice surviving without signs of disease (Raji cells; after a follow-up period of 200 days): 4 of the 12
PARP cleavage ([1]; 24 and 48 hours post treatment, CLL cells): failed to reveal PARP cleavage
caspases 3, 8 and 9 activation ([1]; FTY720 treated CLL cells): remained in precursor forms
reduction in cells in S-phase (Mino cells): ~48%
cell cycle arrest in AML cell lines (AML cell lines): does not cause cell cycle arrest
